# According to article PMC9144537, “Pharmacokinetics, Prostate Distribution and Metabolic Characteristics of Four Representative Flavones after Oral Administration of the Aerial Part of Glycyrrhiza uralensis in Rats” (Molecules, 2022):
# Entries after “also recorded” stand apart in the source; their conditions may differ.
# Test system: not listed separately
# Test: Pharmacokinetics of four flavonoids in rat plasma after oral aerial part of G. uralensis extract (HPLC-MS/MS)
# Format: in vivo, Sprague Dawley (SD) rats
# Details: 3 h after daily oral extract 1 g/kg
# Procedure: For clean-up, the plasma samples (50 μL) were vortex-mixed with 10 μL of IS and 250 μL of methanol. […] At last, 5 μL of the resulting supernatant was applied to HPLC–MS/MS analysis.
# (§1) The analysis was performed on the AB SCIEX QTRAP 5500 (USA) triple quadrupole mass spectrometer, which was performed in SRM and positive and negative ionization modes. LC separation is run on XSelect HSS T3 analytical column (2.1 × 100 mm, 2.5 μm, Waters), equipped with Exion LC AD system (AB Sciex) infinite binary pump. Acetonitrile was used as solvent A and 0.1% formic acid aqueous solution was used as solvent B and the flow rate was 0.1 mL/min. Using gradient elution, the initial condition is that 90% solvent B drops to 0% B within 17 min and maintains it for 2 min, returns to the initial […] at 19.1 min, and ends an analysis at 22 min. The temperature of the column oven is maintained at 35 °C. The sample is kept at 10 °C and the injection volume is 5 μL. The MS parameters are as follows: ESI ion source temperature is 500 °C; curtain gas: 30 psi; collision-activated dissociation (CAD) gas settings: medium, ion spray voltage: −4500 V, ion gas 1 and 2: 50 psi. The data acquisition software is AB SCIEX Analyst 1.7.1. The specific parameters are as Table 8.
row,SMILES,time at which steady state was reached
1,O=c1cc(-c2ccc(O)c(O)c2)oc2cc(O)cc(O)c12 [Luteolin],9 days
2,O=C1C[C@@H](c2ccccc2)Oc2cc(O)cc(O)c21 [Pinocembrin],5 days

# Same assay, conditions: Sprague Dawley, oral extract 1 g/kg every day, day 31, n = 6
SMILES,AUC(0-inf),AUC(0-t),Cmax,Tmax,half-life
O=c1c(O)c(-c2ccc(O)cc2)oc2cc(O)cc(O)c12 [Kaempferol],23.8 ± 0.86 ng·h/mL,18.8 ± 1.18 ng·h/mL,1.27 ± 0.06 ng/mL,4 ± 0.17 h,19 ± 1.46 h
O=c1cc(-c2ccc(O)c(O)c2)oc2cc(O)cc(O)c12 [Luteolin],51.6 ± 1.98 ng·h/mL,–,–,0.87 ± 0.05 h,31.1 ± 1.17 h
O=c1c(-c2ccc(O)cc2)coc2c([C@@H]3O[C@H](CO)[C@@H](O)[C@H](O)[C@H]3O)c(O)ccc12 [Puerarin],242 ± 2.45 ng·h/mL,238 ± 23.4 ng·h/mL,23.8 ± 1.05 ng/mL,0.5 ± 0.04 h,–
O=C1C[C@@H](c2ccccc2)Oc2cc(O)cc(O)c21 [Pinocembrin],23.8 ± 1.29 ng·h/mL,21.8 ± 0.73 ng·h/mL,1.18 ± 0.06 ng/mL,1.5 ± 0.05 h,13.2 ± 0.72 h

# Same assay, conditions: Sprague Dawley, oral extract 1 g/kg every day, day 31, n = 6, read-out: MRT0–t
row,SMILES,MRT last
1,O=c1c(O)c(-c2ccc(O)cc2)oc2cc(O)cc(O)c12 [Kaempferol],20.1 ± 0.84 h
2,O=c1cc(-c2ccc(O)c(O)c2)oc2cc(O)cc(O)c12 [Luteolin],20.7 ± 1.91 h
3,O=c1c(-c2ccc(O)cc2)coc2c([C@@H]3O[C@H](CO)[C@@H](O)[C@H](O)[C@H]3O)c(O)ccc12 [Puerarin],14.4 ± 1.21 h
4,O=C1C[C@@H](c2ccccc2)Oc2cc(O)cc(O)c21 [Pinocembrin],19.1 ± 0.82 h

# Same assay, conditions: Sprague Dawley, oral extract 1 g/kg every day, day 31, n = 6, read-out: MRT0–∞
row,SMILES,MRT inf
1,O=c1c(O)c(-c2ccc(O)cc2)oc2cc(O)cc(O)c12 [Kaempferol],31.8 ± 1.22 h
2,O=c1cc(-c2ccc(O)c(O)c2)oc2cc(O)cc(O)c12 [Luteolin],44 ± 1.72 h
3,O=c1c(-c2ccc(O)cc2)coc2c([C@@H]3O[C@H](CO)[C@@H](O)[C@H](O)[C@H]3O)c(O)ccc12 [Puerarin],15.1 ± 1.71 h
4,O=C1C[C@@H](c2ccccc2)Oc2cc(O)cc(O)c21 [Pinocembrin],23.3 ± 0.83 h

# Same assay, conditions: oral extract 1 g/kg every day, day 31, n = 6
SMILES,AUC0–t,t1/2
O=c1cc(-c2ccc(O)c(O)c2)oc2cc(O)cc(O)c12 [Luteolin],35.01 ± 0.81 ng·h/mL,–
O=c1c(-c2ccc(O)cc2)coc2c([C@@H]3O[C@H](CO)[C@@H](O)[C@H](O)[C@H]3O)c(O)ccc12 [Puerarin],–,6.43 ± 0.20 h

# Test system: not listed separately
# Test: Prostate distribution of four flavonoids after oral aerial part of G. uralensis (HPLC-MS/MS)
# Format: in vivo, Sprague Dawley (SD) rats
# Details: rats, 0.5-8 h after oral extract 1 g/kg on day 31, n = 6
# Procedure: as §1
row,SMILES,"concentration in prostate (ranking, in words)"
1,O=c1c(O)c(-c2ccc(O)cc2)oc2cc(O)cc(O)c12 [Kaempferol],highest concentration; also recorded: kaempferol > pinocembrin > luteolin > puerarin; also recorded: particularly high
2,O=c1cc(-c2ccc(O)c(O)c2)oc2cc(O)cc(O)c12 [Luteolin],kaempferol > pinocembrin > luteolin > puerarin
3,O=c1c(-c2ccc(O)cc2)coc2c([C@@H]3O[C@H](CO)[C@@H](O)[C@H](O)[C@H]3O)c(O)ccc12 [Puerarin],kaempferol > pinocembrin > luteolin > puerarin
4,O=C1C[C@@H](c2ccccc2)Oc2cc(O)cc(O)c21 [Pinocembrin],kaempferol > pinocembrin > luteolin > puerarin

# Test system: not listed separately
# Test: Stability test of analytes in rat prostate homogenate QC samples
# Format: in vitro ADME
# Details: nominal puerarin 0.100, luteolin 0.200, kaempferol 2.000, pinocembrin 2.000, n = 3
# Procedure: All of the solutions were stored at 4℃ until analysis. Stability investigation of the four components in the plasma and prostate homogenates was performed by analyzing replicates (n = 3) of the three levels of QC samples under three different conditions. Room temperature stability was assessed after the exposure of untreated QC samples at room temperature for 24 h. Freeze and thaw stability was evaluated after three freeze (−20 °C)–thaw (room temperature) cycles.
row,SMILES,"Stability, Mean ± S.D., 24 h at room temperature, low QC"
1,O=c1c(O)c(-c2ccc(O)cc2)oc2cc(O)cc(O)c12 [Kaempferol],2.000 ± 0.265 μg·mL^−1/μg·g^−1
2,O=c1cc(-c2ccc(O)c(O)c2)oc2cc(O)cc(O)c12 [Luteolin],0.194 ± 0.005 μg·mL^−1/μg·g^−1
3,O=C1C[C@@H](c2ccccc2)Oc2cc(O)cc(O)c21 [Pinocembrin],1.923 ± 0.076 μg·mL^−1/μg·g^−1

# Same assay, conditions: nominal puerarin 1.000, luteolin 5.000, kaempferol 100.000, pinocembrin 50.000, n = 3
row,SMILES,"Stability, Mean ± S.D., 24 h at room temperature, medium QC"
1,O=c1c(O)c(-c2ccc(O)cc2)oc2cc(O)cc(O)c12 [Kaempferol],99.133 ± 3.557 μg·mL^−1/μg·g^−1
2,O=c1cc(-c2ccc(O)c(O)c2)oc2cc(O)cc(O)c12 [Luteolin],4.963 ± 0.118 μg·mL^−1/μg·g^−1
3,O=c1c(-c2ccc(O)cc2)coc2c([C@@H]3O[C@H](CO)[C@@H](O)[C@H](O)[C@H]3O)c(O)ccc12 [Puerarin],1.097 ± 0.138 μg·mL^−1/μg·g^−1
4,O=C1C[C@@H](c2ccccc2)Oc2cc(O)cc(O)c21 [Pinocembrin],51.000 ± 3.000 μg·mL^−1/μg·g^−1

# Same assay, conditions: nominal puerarin 5.000, luteolin 10.000, kaempferol 200.000, pinocembrin 100.000, n = 3
row,SMILES,"Stability, Mean ± S.D., 24 h at room temperature, high QC"
1,O=c1c(O)c(-c2ccc(O)cc2)oc2cc(O)cc(O)c12 [Kaempferol],201.667 ± 3.215 μg·mL^−1/μg·g^−1
2,O=c1cc(-c2ccc(O)c(O)c2)oc2cc(O)cc(O)c12 [Luteolin],9.900 ± 0.458 μg·mL^−1/μg·g^−1
3,O=c1c(-c2ccc(O)cc2)coc2c([C@@H]3O[C@H](CO)[C@@H](O)[C@H](O)[C@H]3O)c(O)ccc12 [Puerarin],4.940 ± 0.056 μg·mL^−1/μg·g^−1
4,O=C1C[C@@H](c2ccccc2)Oc2cc(O)cc(O)c21 [Pinocembrin],102.000 ± 2.646 μg·mL^−1/μg·g^−1

# Same assay, conditions: three freeze-thaw cycles, nominal puerarin 0.100, luteolin 0.200, kaempferol 2.000, pinocembrin 2.000, n = 3
row,SMILES,"Stability, Mean ± S.D., freeze-thaw cycles, low QC"
1,O=c1c(O)c(-c2ccc(O)cc2)oc2cc(O)cc(O)c12 [Kaempferol],1.833 ± 0.058 μg·mL^−1/μg·g^−1
2,O=c1cc(-c2ccc(O)c(O)c2)oc2cc(O)cc(O)c12 [Luteolin],0.213 ± 0.031 μg·mL^−1/μg·g^−1
3,O=c1c(-c2ccc(O)cc2)coc2c([C@@H]3O[C@H](CO)[C@@H](O)[C@H](O)[C@H]3O)c(O)ccc12 [Puerarin],0.100 ± 0.005 μg·mL^−1/μg·g^−1
4,O=C1C[C@@H](c2ccccc2)Oc2cc(O)cc(O)c21 [Pinocembrin],1.867 ± 0.153 μg·mL^−1/μg·g^−1

# Same assay, conditions: three freeze-thaw cycles, nominal puerarin 1.000, luteolin 5.000, kaempferol 100.000, pinocembrin 50.000, n = 3
row,SMILES,"Stability, Mean ± S.D., freeze-thaw cycles, medium QC"
1,O=c1c(O)c(-c2ccc(O)cc2)oc2cc(O)cc(O)c12 [Kaempferol],96.667 ± 2.082 μg·mL^−1/μg·g^−1
2,O=c1cc(-c2ccc(O)c(O)c2)oc2cc(O)cc(O)c12 [Luteolin],4.833 ± 0.058 μg·mL^−1/μg·g^−1
3,O=C1C[C@@H](c2ccccc2)Oc2cc(O)cc(O)c21 [Pinocembrin],51.333 ± 1.528 μg·mL^−1/μg·g^−1

# Same assay, conditions: three freeze-thaw cycles, nominal puerarin 5.000, luteolin 10.000, kaempferol 200.000, pinocembrin 100.000, n = 3
row,SMILES,"Stability, Mean ± S.D., freeze-thaw cycles, high QC"
1,O=c1c(O)c(-c2ccc(O)cc2)oc2cc(O)cc(O)c12 [Kaempferol],202.333 ± 2.082 μg·mL^−1/μg·g^−1
2,O=c1cc(-c2ccc(O)c(O)c2)oc2cc(O)cc(O)c12 [Luteolin],10.433 ± 0.551 μg·mL^−1/μg·g^−1
3,O=c1c(-c2ccc(O)cc2)coc2c([C@@H]3O[C@H](CO)[C@@H](O)[C@H](O)[C@H]3O)c(O)ccc12 [Puerarin],5.057 ± 0.224 μg·mL^−1/μg·g^−1
4,O=C1C[C@@H](c2ccccc2)Oc2cc(O)cc(O)c21 [Pinocembrin],102.333 ± 2.887 μg·mL^−1/μg·g^−1

# Test system: primary liver cell model
# Test: not given
# Set-up: method as in Lu et al. [65]
# Details: ref Lu et al. [65]; cited from earlier work
row,SMILES,"Phase II metabolites, share of the dosage"
1,O=c1cc(-c2ccc(O)c(O)c2)oc2cc(O)cc(O)c12 [Luteolin],54%

# Test system: not listed separately
# Test: Qualitative detection of prototype flavones and metabolites in rat plasma, prostate, urine and feces by UPLC-Q-Exactive Orbitrap-MS after oral aerial part of G. uralensis
# Details: rats, single oral 1 g/kg extract, + not defined (detected)
# Procedure: Forty-eight rats were randomly divided into four groups, namely plasma (n = 6), prostate (n = 30, there were five time points, with six individuals for each time point), excretion (n = 6) and blank (n = 6). The plasma, prostate, and excretion groups were gavaged with 1 g/kg of Glycyrrhiza uralensis sample, whereas the blank group was administered 0.5% CMC-Na. Biological samples were collected after the mice were dosed once.
# The tube was placed at room temperature for 1 h; then, it was centrifuged at 4 °C (10,000 rpm, 10 min). Upper plasma of different time points was separated for 50 μL and mixed and shaken well. Mixed plasma was collected at 50 μL and the plasma samples (50 μL) were vortex-mixed with 250 μL of methanol. The solution was centrifuged at 10,000 rpm for 10 min to separate the protein from the organic phase, and then the upper supernatant was collected. Then, the supernatant was transferred and evaporated to dryness under a gentle stream of nitrogen at room temperature. The residue was reconstituted in 50 µL methanol, mixed for 1 min, and centrifuged at 10,000 rpm for 10 min. At last, 20 μL of the resulting supernatant was applied to UPLC–MS/MS analysis.
# UPLC-Q-Exactive Orbitrap-MS analysis was performed on a Dionex Ultimate 3000 ultra-high performance liquid system (ThermoFisher) consisting of a binary pump, a DAD detector, a column chamber, an automatic sampler and an online degasser. The sample was separated on a Waters ACQUITY UPLC HSS T3 C18 column (2.1 mm × 100 mm, 1.8 μm), with a column temperature of 30 °C, automatic sampler temperature of 10 °C, and flow rate of 0.2 mL·min^−1. The mobile phases A and B were acetonitrile with 0.1% formic acid and aqueous solution with 0.1% formic acid, respectively. […] The injection volume of the sample was 5 μL.
# The MS conditions were as follows: detection mode: positive and negative ion modes; scan range: 100–1200; resolution: 70,000; sheath gas flow rate: 40; aux gas flow rate: 15; spray voltage [kV]: 3.20; capillary temp: 320 °C; aux gas heater temp: 350 °C; AGC target: 3,000,000; maximum IT (ms): 100; sheath gas: 40/45; aux gas flow: 11/10; sweep gas: 0; S-lens RF level: 55; and aux gas heater temperature: 220 °C.
row,SMILES,Distribution of four representative flavonoids and metabolites: Plasma
1,O=c1c(-c2ccc(O)cc2)coc2c([C@@H]3O[C@H](CO)[C@@H](O)[C@H](O)[C@H]3O)c(O)ccc12 [Puerarin],detected

# Same assay, conditions: rats, single oral 1 g/kg extract, mixed plasma 0.25-48 h, + not defined
row,SMILES,Distribution of protoflavones: Plasma
1,COc1ccc(-c2coc3cc(O[C@@H]4O[C@H](CO)[C@@H](O)[C@H](O)[C@H]4O)ccc3c2=O)cc1 [Ononin],detected
2,C[C@@H]1O[C@@H](OC[C@H]2O[C@@H](Oc3c(-c4ccc(O)c(O)c4)oc4cc(O)cc(O)c4c3=O)[C@H](O)[C@@H](O)[C@@H]2O)[C@H](O)[C@H](O)[C@H]1O [Rutin],detected
3,O=c1c(O[C@@H]2O[C@H](CO)[C@@H](O)[C@H](O)[C@H]2O)c(-c2ccc(O)c(O)c2)oc2cc(O)cc(O)c12 [Isoquercitrin],detected
4,O=c1c(O[C@@H]2O[C@H](CO)[C@@H](O)[C@H](O)[C@H]2O)c(-c2ccc(O)cc2)oc2cc(O)cc(O)c12 [Astragalin],detected
5,O=c1cc(-c2ccc(O)cc2)oc2c([C@@H]3O[C@H](CO)[C@@H](O)[C@H](O)[C@H]3O)c(O)cc(O)c12 [Vitexin],detected
6,O=c1c(-c2ccc(O)cc2)coc2c([C@@H]3O[C@H](CO)[C@@H](O)[C@H](O)[C@H]3O)c(O)ccc12 [Puerarin],detected
7,O=c1c(O[C@@H]2O[C@H](CO)[C@H](O)[C@H](O)[C@H]2O)c(-c2ccc(O)c(O)c2)oc2cc(O)cc(O)c12 [Hyperoside],detected
